Assay results published in ChEMBL document CHEMBL1201862, “PubChem BioAssay data set” (2004).
Calls of active or inactive are those of the source.

Legend:
Bcl-2-related protein A1 = target: T1, Bcl-2-related protein A1 (Mus musculus, UniProt Q07440); assay type: functional;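 also: confirmatory dose–response counterscreen on Bfl-1, used to check hits from a UBC13 polyubiquitin inhibitor campaign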
T1 sequence (Q07440 whole entry): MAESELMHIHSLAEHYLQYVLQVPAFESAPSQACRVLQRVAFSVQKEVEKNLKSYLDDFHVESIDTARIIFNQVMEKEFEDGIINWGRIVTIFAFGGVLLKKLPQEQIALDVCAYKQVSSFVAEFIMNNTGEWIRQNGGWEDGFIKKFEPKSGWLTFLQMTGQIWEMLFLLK

[1] = target: T2, Ubiquitin-conjugating enzyme E2 N (Homo sapiens, UniProt P61088); assay type: functional
T2 sequence (P61088 whole entry): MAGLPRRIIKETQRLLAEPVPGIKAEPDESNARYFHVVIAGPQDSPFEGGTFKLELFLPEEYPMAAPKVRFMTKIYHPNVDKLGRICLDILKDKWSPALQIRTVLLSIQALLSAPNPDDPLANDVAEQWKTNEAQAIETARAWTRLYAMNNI

[2] = target: T2, Ubiquitin-conjugating enzyme E2 N; assay type: functional; remark: listed apart in the source
[3] = target: Glyceraldehyde-3-phosphate dehydrogenase (Homo sapiens, UniProt P04406)
cells = assay type: functional
[4] = target: Induced myeloid leukemia cell differentiation protein Mcl-1 (Homo sapiens, UniProt Q07820); assay type: functional
Aminopeptidase N = target: T3, Aminopeptidase N (Plasmodium falciparum FcB1/Columbia, UniProt O96935); experiment: P. falciparum M1AAP inhibitors, biochemical, fluorogenic H-Leu-NHMec substrate, 1536-well (AID 1445); set-up: species or system Plasmodium falciparum 3D7, 3D7
T3 sequence (O96935 whole entry): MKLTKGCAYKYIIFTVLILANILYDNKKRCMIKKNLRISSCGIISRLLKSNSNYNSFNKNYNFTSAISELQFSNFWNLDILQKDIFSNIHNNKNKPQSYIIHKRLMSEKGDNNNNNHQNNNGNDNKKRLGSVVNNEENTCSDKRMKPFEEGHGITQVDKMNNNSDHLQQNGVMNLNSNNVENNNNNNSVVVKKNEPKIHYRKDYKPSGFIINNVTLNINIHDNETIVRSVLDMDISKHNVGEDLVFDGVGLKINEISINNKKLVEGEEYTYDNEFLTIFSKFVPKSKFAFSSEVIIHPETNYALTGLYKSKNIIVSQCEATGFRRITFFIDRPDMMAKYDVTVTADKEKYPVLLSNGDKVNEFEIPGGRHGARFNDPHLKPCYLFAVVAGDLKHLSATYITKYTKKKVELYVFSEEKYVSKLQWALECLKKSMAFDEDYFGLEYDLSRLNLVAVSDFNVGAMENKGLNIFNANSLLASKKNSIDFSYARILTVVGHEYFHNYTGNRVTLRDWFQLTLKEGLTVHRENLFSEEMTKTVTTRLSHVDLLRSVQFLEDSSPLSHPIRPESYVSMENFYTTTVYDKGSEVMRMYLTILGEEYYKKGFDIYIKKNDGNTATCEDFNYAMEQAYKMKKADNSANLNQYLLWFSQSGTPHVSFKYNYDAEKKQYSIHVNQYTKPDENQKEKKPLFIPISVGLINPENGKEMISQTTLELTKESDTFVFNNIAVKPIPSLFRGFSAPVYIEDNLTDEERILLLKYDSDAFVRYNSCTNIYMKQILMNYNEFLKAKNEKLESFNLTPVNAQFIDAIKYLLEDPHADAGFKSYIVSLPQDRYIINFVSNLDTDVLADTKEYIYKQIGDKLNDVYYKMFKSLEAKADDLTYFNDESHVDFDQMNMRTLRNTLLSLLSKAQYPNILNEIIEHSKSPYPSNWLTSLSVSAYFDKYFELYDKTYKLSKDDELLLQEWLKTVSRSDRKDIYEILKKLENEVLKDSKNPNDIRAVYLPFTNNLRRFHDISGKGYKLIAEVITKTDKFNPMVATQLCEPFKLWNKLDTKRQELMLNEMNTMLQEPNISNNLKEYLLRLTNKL

[5] = target: T4, Carboxy-terminal domain RNA polymerase II polypeptide A small phosphatase 1 (Homo sapiens, UniProt Q9GZU7); experiment: inhibitors of CTDSP1, concentration-response testing, biochemical assay, absorbance-based, actives from ultra-high-throughput screening (AID 540297); assay type: functional
T4 sequence (Q9GZU7 whole entry): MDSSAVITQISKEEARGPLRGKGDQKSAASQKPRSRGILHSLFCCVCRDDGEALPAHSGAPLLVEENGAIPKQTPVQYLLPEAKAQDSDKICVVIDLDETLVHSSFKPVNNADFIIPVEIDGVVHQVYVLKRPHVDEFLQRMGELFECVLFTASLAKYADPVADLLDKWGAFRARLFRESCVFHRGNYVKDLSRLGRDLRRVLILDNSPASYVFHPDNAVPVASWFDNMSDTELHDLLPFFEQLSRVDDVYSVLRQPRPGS

[6] = target: T5, Calpain-2 catalytic subunit (Sus scrofa, UniProt P43367); experiment: pig calpain II inhibitor potency, dose response, biochemical, fluorogenic peptide substrate (AID 1420); assay type: functional
T5 sequence (P43367 whole entry): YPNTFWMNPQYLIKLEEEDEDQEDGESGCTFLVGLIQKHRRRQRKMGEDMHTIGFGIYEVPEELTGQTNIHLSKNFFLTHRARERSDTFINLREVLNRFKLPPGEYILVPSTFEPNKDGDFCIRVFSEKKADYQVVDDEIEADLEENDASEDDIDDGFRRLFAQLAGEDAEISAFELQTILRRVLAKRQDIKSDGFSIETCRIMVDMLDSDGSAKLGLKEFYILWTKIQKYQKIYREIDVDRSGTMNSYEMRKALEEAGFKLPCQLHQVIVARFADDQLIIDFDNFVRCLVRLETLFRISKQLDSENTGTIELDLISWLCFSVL

SUMO-activating enzyme [7] = target: T6, SUMO-activating enzyme (Homo sapiens, UniProt Q9UBT2); experiment: SUMOylation inhibitor hit validation, confirmation, SUMOylation inhibitor project, biochemical, AlphaScreen (AID 2018); assay type: functional
SUMO-activating enzyme [8] = target: T6, SUMO-activating enzyme; experiment: inhibitors of in vitro SUMOylation cascade, primary screen, biochemical, HTRF, uHTS (AID 2006); assay type: protein-complex assay
BJ [9] = experiment: cells; assay type: functional, cell-based; settings: Homo sapiens
BJ [10] = experiment: cytotoxicity toward BJ-TERT-LT-ST fibroblasts, dose response, cell-based, RAS-independent, luminescence (AID 1935); assay type: functional; settings: Homo sapiens;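 also: BJ fibroblasts immortalized with TERT plus LT and ST oncogenes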
[11] = Luminescence Cell-Based Dose Confirmation HTS to Identify Activators of 5'UTR Stem-Loop Driven Alpha-Synuclein mRNA Translation in H4 Neuroglioblastoma Cells. [Related pubchem assays: 1829 (Project Summary), 1814 (Primary HTS)]; assay type: functional
H4 = experiment: Luminescence Cell-Based Dose Response HTS to Identify Activators of 5'UTR Stem-Loop Driven Prion Protein mRNA Translation in H4 Neuroglioblastoma Cells. [Related pubchem assays: 1829 (Project Summary), 1814 (Primary HTS)]; assay type: functional; settings: Homo sapiens
[12] = Luminescence Cell-Based Dose Response HTS to Identify Activators of Luciferase Translation or Activity in H4 […] Cells. [Related pubchem assays: 1829 (Project Summary), 1814 (Primary HTS)]; assay type: functional
BJ [13] = experiment: cytotoxicity toward BJ-TERT fibroblasts, dose response, cell-based, RAS-independent, luminescence (AID 1933); assay type: functional; settings: Homo sapiens
[14] = cytotoxicity toward DRD oncogenic fibroblasts, dose response, cell-based, non-viral oncogenic, luminescence (AID 1934); assay type: functional; settings: Homo sapiens
[15] = cytotoxicity in HEK-293T cells, dose response, cytotoxicity control for BCR NF-kB inhibitor project, luminescence, B-cell screen hits (AID 489021); assay type: functional, cell-based;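 also: HEK-293T cells carrying an NF-kB luciferase reporter; cells exposed to compound for about 14 hours before viability readout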
[16] = target: T7, Microphthalmia-associated transcription factor (Homo sapiens, UniProt O75030); experiment: TRPM1 promoter luciferase signal decrease, dose response, MITF inhibitor project, cell-based, SK-MEL-5, cherry-picked, set 3 (AID 493073); assay type: functional
T7 sequence (O75030 whole entry): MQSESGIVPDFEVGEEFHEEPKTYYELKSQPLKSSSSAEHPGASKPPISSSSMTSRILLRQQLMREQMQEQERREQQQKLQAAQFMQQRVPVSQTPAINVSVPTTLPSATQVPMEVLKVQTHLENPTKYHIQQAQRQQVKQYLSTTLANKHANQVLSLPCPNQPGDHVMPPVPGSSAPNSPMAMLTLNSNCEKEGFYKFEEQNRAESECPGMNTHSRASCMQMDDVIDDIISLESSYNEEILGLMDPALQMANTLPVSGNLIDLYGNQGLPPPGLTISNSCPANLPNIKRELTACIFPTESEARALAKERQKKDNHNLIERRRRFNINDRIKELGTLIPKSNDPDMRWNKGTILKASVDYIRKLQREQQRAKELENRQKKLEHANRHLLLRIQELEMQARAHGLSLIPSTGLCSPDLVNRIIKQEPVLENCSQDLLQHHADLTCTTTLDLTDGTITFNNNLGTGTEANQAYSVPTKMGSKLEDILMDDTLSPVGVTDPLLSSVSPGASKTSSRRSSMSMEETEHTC

Leucine aminopeptidase = target: T8, Leucine aminopeptidase (Plasmodium falciparum 3D7, UniProt Q8IL11); experiment: P. falciparum M17LAP inhibitors, primary screen, biochemical, fluorogenic H-Leu-NHMec substrate, 1536-well (AID 1619); assay type: functional
T8 sequence (Q8IL11 whole entry): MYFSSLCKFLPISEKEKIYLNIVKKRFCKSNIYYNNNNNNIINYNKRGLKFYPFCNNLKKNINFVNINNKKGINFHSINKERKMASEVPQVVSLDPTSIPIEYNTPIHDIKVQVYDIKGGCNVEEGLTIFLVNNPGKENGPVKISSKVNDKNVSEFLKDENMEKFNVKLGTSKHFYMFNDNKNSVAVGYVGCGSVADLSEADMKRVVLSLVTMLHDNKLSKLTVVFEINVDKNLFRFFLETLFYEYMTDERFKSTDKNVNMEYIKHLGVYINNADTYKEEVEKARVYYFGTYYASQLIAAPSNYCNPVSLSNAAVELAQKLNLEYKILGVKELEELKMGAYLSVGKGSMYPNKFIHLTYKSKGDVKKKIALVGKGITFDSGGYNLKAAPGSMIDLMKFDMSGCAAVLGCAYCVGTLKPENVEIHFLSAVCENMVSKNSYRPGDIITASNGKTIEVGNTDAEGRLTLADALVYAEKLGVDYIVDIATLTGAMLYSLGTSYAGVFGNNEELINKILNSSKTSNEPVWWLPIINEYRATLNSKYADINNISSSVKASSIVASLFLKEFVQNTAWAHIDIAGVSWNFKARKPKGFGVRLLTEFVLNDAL

T6 sequence (Q9UBE0 whole entry): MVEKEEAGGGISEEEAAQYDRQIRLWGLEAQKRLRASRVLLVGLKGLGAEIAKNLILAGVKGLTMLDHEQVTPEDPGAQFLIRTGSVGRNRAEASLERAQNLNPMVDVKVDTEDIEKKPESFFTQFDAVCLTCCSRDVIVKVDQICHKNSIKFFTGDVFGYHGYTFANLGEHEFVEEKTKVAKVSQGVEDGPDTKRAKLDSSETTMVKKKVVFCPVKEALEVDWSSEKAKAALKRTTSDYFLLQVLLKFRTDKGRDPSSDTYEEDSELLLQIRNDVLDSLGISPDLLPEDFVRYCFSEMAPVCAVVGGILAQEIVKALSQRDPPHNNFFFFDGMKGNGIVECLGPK
T6 sequence (Q9UBT2 whole entry): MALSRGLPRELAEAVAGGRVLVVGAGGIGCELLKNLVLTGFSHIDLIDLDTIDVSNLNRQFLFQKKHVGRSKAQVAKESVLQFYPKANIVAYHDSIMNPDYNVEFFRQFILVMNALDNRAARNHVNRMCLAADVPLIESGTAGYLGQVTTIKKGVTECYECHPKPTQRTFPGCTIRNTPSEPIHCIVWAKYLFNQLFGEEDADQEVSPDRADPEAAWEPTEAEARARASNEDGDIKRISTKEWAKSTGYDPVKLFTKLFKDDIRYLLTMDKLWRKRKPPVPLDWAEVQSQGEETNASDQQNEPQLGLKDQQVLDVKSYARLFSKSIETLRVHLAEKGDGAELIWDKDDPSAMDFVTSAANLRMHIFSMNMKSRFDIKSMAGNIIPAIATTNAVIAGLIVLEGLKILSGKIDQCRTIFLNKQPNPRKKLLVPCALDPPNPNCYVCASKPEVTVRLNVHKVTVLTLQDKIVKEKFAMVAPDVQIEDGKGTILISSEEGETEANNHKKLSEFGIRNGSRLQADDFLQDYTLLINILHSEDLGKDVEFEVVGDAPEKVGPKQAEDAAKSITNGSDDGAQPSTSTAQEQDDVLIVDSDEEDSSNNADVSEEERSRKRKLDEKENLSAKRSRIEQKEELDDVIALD
Chain of Glyceraldehyde-3-phosphate dehydrogenase (P04406 whole entry): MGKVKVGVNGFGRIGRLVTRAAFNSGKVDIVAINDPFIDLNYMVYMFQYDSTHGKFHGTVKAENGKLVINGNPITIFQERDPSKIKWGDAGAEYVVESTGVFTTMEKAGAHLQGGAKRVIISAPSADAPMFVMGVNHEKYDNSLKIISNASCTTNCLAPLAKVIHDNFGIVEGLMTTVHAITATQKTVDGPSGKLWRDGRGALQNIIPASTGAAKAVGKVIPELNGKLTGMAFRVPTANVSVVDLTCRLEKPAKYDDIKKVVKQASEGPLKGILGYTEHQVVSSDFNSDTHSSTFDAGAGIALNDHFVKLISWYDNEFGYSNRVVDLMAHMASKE
Chain of Induced myeloid leukemia cell differentiation protein Mcl-1 (Q07820 whole entry): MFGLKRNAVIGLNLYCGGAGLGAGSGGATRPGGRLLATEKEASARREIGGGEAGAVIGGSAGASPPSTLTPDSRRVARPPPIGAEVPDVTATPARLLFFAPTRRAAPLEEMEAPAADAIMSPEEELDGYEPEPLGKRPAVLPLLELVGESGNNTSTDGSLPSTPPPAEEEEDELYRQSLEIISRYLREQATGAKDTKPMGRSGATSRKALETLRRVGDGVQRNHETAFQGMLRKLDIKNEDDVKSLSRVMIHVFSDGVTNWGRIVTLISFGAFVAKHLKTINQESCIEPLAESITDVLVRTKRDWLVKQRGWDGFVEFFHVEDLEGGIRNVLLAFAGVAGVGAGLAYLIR

CC(C)CC(C(=O)NC(C)(C)C)N(CC1CCCO1)C(=O)c1snc(C(N)=O)c1N (configuration not stated)
IC50 (Bcl-2-related protein A1): > 20 µM (inactive)
IC50 [1]: 13.4 µM (active)
IC50 [2]: 11.2 µM (active)

O=C(CCC1CCCCC1)Nc1nc[nH]n1
IC50 [3]: > 10 µM (inconclusive)

Cc1cc(NC(=O)COc2ccccc2)ccc1Cl
IC50 (cells): > 50 µM (active)

Cc1ccccc1CNC(=O)CCCC(=O)n1nc(C)c2ccccc21
IC50 (Bcl-2-related protein A1): > 20 µM (inactive)
IC50 [1]: 13.5 µM (active)
IC50 [2]: 20 µM (active)

CS(=O)(=O)C1=NSC2=NC(=O)/C(=C\c3cccn3-c3ccc(Cl)cc3)C(=N)N21
IC50 [4]: 4.98 µM (active)
IC50 (Aminopeptidase N): 5.15 µM (active)
IC50 [5]: 5.93 µM (active)

O=C(Nc1ccc2oc(=O)ccc2c1)c1ccc(-c2cccc(Cl)c2)o1
IC50 [6]: 11.6 µM (not active)
IC50 (SUMO-activating enzyme [7]): 15.8 µM (active)
IC50 (SUMO-activating enzyme [8]): 6.77 µM (active)

Cn1cc(C(=O)N/N=C/c2ccc3c(c2)OCO3)c2ccccc21
EC50 (BJ [9]): 44.9 µM (active)
EC50 (BJ [10]): > 150 µM (inconclusive)
EC50 [11]: > 120 µM (not active)
EC50 (H4): 5.85 µM (active)
EC50 [12]: 5.78 µM (active)
EC50 (BJ [13]): 124 µM (active)
EC50 [14]: 19.6 µM (active)

O=C1NC(=S)NC(=O)C1=NNc1ccc(-c2ccccc2)cc1[N+](=O)[O-]
IC50 (SUMO-activating enzyme [7]): 4.11 µM (active)
IC50 [4]: 4.83 µM (active)
IC50 (Aminopeptidase N): 10.5 µM (active)
IC50 (SUMO-activating enzyme [8]): 22.4 µM (active)

CCN(CC)S(=O)(=O)c1ccc(N2CCOCC2)c(NC(=O)c2[nH]c(C)c(C(C)=O)c2C)c1
IC50 [15]: > 80 µM (inactive)

O=C(C[n+]1cccc2ccccc21)c1ccc([N+](=O)[O-])cc1
AC50 [16]: 6.21 µM (active)

CCOc1ccccc1Nc1nnc(SCC(=O)NC(Cc2c[nH]c3ccccc23)C(=O)O)s1 (configuration not stated)
IC50 (Leucine aminopeptidase): 7.81 µM (active)
IC50 (Aminopeptidase N): 67.4 µM (active)

O=C(COC(=O)c1cc(Br)ccc1O)Nc1ccc2c(c1)OCO2
IC50 (cells): 22.1 µM (active)

O=C1C(Cl)=C(N2CCN(CCO)CC2)C(=O)N1c1ccnc(Cl)c1
IC50 [3]: > 50 µM (inconclusive)

CCOC(=O)c1c(C)[nH]c(C)c1C(=O)COC(=O)c1ccc([N+](=O)[O-])s1
IC50 (cells): 8.59 µM (active)

CCOc1ccc(-c2nnc(SCC(=O)Nc3cc(C)on3)o2)cc1
IC50 [15]: > 80 µM (inactive)

Cc1cccc2c1c(/N=N/C(=N)S)c(O)n2C1OC(CO)C(O)C(O)C1O (configuration not stated)
IC50 (Bcl-2-related protein A1): > 20 µM (inactive)
IC50 [1]: 10.7 µM (active)
IC50 [2]: 4.56 µM (active)

Cc1c(CCC(=O)N2CCC(C(=O)O)CC2)c(=O)oc2cc3oc4c(c3cc12)CCCC4
IC50 [15]: > 80 µM (inactive)
